Measurements taken from ChEMBL document CHEMBL3351611, “Diversity-oriented synthesis-facilitated medicinal chemistry: toward the development of novel antimalarial agents” (J Med Chem, 2014).
In brackets after ≈: the same amount, converted by molar mass.

Key:
[1] = target: hERG (KCNH2) (Homo sapiens, UniProt Q12809); experiment: Displacement of [3H]astemizole from human ERG expressed in HEK293 cell membranes at 10 uM incubated for 75 mins by scintillation counting method; conditions: HEK293 cell membranes that express hERG, probe [3H]astemizole
Chain of hERG (KCNH2) (Q12809 whole entry): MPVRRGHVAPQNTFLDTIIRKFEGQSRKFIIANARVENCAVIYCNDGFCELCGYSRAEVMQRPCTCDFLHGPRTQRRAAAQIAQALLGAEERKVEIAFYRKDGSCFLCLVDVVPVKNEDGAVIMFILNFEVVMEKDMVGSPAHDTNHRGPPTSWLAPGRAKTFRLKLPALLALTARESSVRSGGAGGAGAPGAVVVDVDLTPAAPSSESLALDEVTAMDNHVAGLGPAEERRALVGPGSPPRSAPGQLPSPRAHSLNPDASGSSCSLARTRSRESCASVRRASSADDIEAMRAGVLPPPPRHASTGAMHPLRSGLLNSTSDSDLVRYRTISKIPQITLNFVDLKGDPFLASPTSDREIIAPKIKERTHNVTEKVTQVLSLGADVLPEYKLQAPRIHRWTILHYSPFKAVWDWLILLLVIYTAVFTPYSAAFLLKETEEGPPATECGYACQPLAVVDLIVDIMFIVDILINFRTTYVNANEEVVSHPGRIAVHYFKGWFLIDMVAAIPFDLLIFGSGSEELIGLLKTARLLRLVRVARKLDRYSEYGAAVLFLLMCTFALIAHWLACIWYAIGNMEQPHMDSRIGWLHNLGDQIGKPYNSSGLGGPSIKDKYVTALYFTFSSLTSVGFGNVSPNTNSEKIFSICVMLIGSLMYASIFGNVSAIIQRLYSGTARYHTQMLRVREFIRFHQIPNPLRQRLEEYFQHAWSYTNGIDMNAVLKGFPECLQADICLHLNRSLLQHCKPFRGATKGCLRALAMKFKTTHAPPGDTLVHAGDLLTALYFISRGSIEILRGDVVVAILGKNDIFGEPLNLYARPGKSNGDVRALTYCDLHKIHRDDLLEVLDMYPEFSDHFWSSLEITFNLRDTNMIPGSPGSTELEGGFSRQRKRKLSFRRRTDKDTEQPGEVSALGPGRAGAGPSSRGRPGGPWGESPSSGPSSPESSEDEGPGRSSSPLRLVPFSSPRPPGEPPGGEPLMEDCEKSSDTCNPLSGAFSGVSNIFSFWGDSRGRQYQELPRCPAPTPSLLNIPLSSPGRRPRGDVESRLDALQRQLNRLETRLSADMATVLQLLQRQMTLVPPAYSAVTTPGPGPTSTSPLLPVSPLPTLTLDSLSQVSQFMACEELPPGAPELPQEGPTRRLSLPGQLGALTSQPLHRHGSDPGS

[2] = Lipophilicity, log D of the compound by HPLC method; format: physicochemical
[3] = system: Plasmodium falciparum; experiment: Antimalarial activity against Plasmodium falciparum Dd2 assessed as inhibition of parasite proliferation; format: functional
[4] = Stability in mouse microsomes assessed as compound remaining at 1 uM after 1 hr at 37 degC by UPLC-MS method; format: ADME, Microsome; conditions: read-out: Stability
[5] = Solubility in PBS buffet at pH 7.4 at 100 uM incubated for 18 hrs by UPLC-MS method; format: physicochemical; conditions: for solubility: buffer, pH 7.4, 18 h, 100 µM
[6] = Plasma concentration CD1 mouse at 20 mg/kg, ip dosed through cassette administration measured after 2 hrs by LC-MS/MS method; format: ADME, organism-based; set-up: dose 20 mg/kg, route intraperitoneal
[7] = Plasma concentration in Plasmodium berghei ANKA infected CD1 Swiss albino mouse at 100 mg/kg, ip dosed seven times every 12 hrs over 3 days measured 30 mins after final dose on day 3; format: ADME, organism-based; set-up: dose 100 mg/kg, route intraperitoneal
[8] = system: Plasmodium berghei; experiment: Antimalarial activity against Plasmodium berghei ANKA infected in CD1 Swiss albino mouse assessed as reduction in parasitemia level at 100 mg/kg, ip dosed seven times every 12 hrs over 3 days relative to control; format: functional; conditions: route intraperitoneal
[9] = system: Plasmodium berghei; experiment: Antimalarial activity against Plasmodium berghei ANKA infected in CD1 Swiss albino mouse assessed as reduction in parasitemia; format: functional

| Structure (SMILES) | logD [2] | GI50 [3] [nM] | remaining at 1 h, 1 µM [4] [%] | solubility [5] [µM] | other results |
| --- | --- | --- | --- | --- | --- |
| C[C@@H]1CN([C@@H](C)CN(C)C)C(=O)c2cc(NC(=O)Nc3ccccc3)ccc2O[C@@H](C)CCCCO[C@H]1CN(C)S(=O)(=O)c1ccc(F)cc1 | 4.1 |  |  |  | inhibition at 1.25 h, 10 µM [1]: 95% |
| Cc1noc(C)c1NC(=O)Nc1ccc2c(c1)C(=O)N([C@@H](C)CO)C[C@@H](C)[C@H](CN(C)S(=O)(=O)c1ccc(F)cc1)OCCCC[C@H](C)O2 | 2.9 | 240 | < 5 |  | inhibition at 1.25 h, 10 µM [1]: 11% |
| Cc1noc(C)c1NC(=O)Nc1ccc2c(c1)C(=O)N(C(C)C)C[C@@H](C)[C@H](CN(C)S(=O)(=O)c1ccc(F)cc1)OCCCC[C@H](C)O2 | 4 | 22 | < 5 |  | inhibition at 1.25 h, 10 µM [1]: 0%; solubility at 18 h, 100 µM ([5]; PBS buffer, pH 7.4): < 5 µM |
| COc1ccc(COC[C@H](C)N2C[C@@H](C)[C@H](CN(C)S(=O)(=O)c3ccc(F)cc3)OCCCC[C@H](C)Oc3ncc(F)cc3C2=O)cc1 |  | 162 |  | < 5 |  |
| C[C@@H]1CN([C@@H](C)CN(C)C)C(=O)c2cccnc2O[C@@H](C)CCCCO[C@H]1CN(C)S(=O)(=O)c1ccc(F)cc1 |  | 231 | < 5 | > 100 |  |
| CCN(CC)C[C@H](C)N1C[C@@H](C)[C@H](CN(C)S(=O)(=O)c2ccc(F)cc2)OCCCC[C@H](C)Oc2ncccc2C1=O |  | 79 | < 5 | > 100 |  |
| C[C@@H]1CN([C@@H](C)CN(C)Cc2cc(F)ccc2F)C(=O)c2cccnc2O[C@@H](C)CCCCO[C@H]1CN(C)S(=O)(=O)c1ccc(F)cc1 |  | 10 |  | < 5 |  |
| COc1ccc(COC[C@H](C)N2C[C@@H](C)[C@H](CN(C)S(=O)(=O)c3ccc(F)cc3)OCCCC[C@H](C)Oc3ccsc3C2=O)cc1 |  | 481 |  | < 5 |  |
| COc1ccc(COC[C@H](C)N2C[C@@H](C)[C@H](CN(C)S(=O)(=O)c3ccc(F)cc3)OCCCC[C@H](C)Oc3c(cnn3C)C2=O)cc1 |  | 375 |  | 15 (≈ 10.1 µg/mL) |  |
| COc1ccc(COC[C@H](C)N2CC[C@H](CN(C)S(=O)(=O)c3ccc(F)cc3)OCCCC[C@H](C)Oc3ccc(NC(=O)Nc4c(C)noc4C)cc3C2=O)cc1 |  | 20 |  | < 5 |  |
| Cc1noc(C)c1NC(=O)Nc1ccc2c(c1)C(=O)N([C@@H](C)CN(C)C)CC[C@H](CN(C)S(=O)(=O)c1ccc(F)cc1)OCCCC[C@H](C)O2 |  | 71 | 2 | 99 (≈ 71 µg/mL) |  |
| COc1ccc(COC[C@H](C)N2C[C@@H](C)[C@H](CN(C)S(=O)(=O)c3ccc(F)cc3)OCCCCCOc3ccc(NC(=O)Nc4c(C)noc4C)cc3C2=O)cc1 |  | 6 |  |  |  |
| Cc1noc(C)c1NC(=O)Nc1ccc2c(c1)C(=O)N([C@@H](C)CN(C)C)C[C@@H](C)[C@H](CN(C)S(=O)(=O)c1ccc(F)cc1)OCCCCCO2 |  | 111 |  | > 100 |  |
| COc1ccc(COC[C@H](C)N2C[C@@H](C)[C@H](CN(C)S(=O)(=O)c3ccc(F)cc3)OCCCCCNc3ccc(NC(=O)Nc4c(C)noc4C)cc3C2=O)cc1 |  | 76 |  | < 5 |  |
| COc1ccc(COC[C@H](C)N2C[C@@H](C)[C@H](CN(C)S(=O)(=O)c3ccc(F)cc3)OCCCCOc3ccc(NC(=O)Nc4c(C)noc4C)cc3C2=O)cc1 |  | 17 | 17 | < 5 |  |
| CNC[C@H](C)N1C[C@@H](C)[C@H](CN(C)S(=O)(=O)c2ccc(F)cc2)OCCCCOc2ccc(NC(=O)Nc3c(C)noc3C)cc2C1=O |  | 624 | 65 | > 100 |  |
| Cc1noc(C)c1NC(=O)Nc1ccc2c(c1)C(=O)N([C@@H](C)CN(C)C)C[C@@H](C)[C@H](CN(C)S(=O)(=O)c1ccc(F)cc1)OCCCCO2 |  | 91 | 15 | > 100 |  |
| COc1ccc(COC[C@H](C)N2C[C@@H](C)[C@H](CN(C)S(=O)(=O)c3ccc(F)cc3)OCCCOc3ccc(NC(=O)Nc4c(C)noc4C)cc3C2=O)cc1 |  | 767 |  | < 5 |  |
| COc1ccc(COC[C@H](C)N2C[C@@H](C)[C@H](CN(C)S(=O)(=O)c3ccc(F)cc3)OCCOc3ccc(NC(=O)Nc4c(C)noc4C)cc3C2=O)cc1 |  | 2970 |  | 6 (≈ 4.61 µg/mL) |  |

| Structure (SMILES) | logD [2] | GI50 [3] [nM] | remaining at 1 h, 1 µM [4] [%] | solubility [5] [µM] | other results |
| --- | --- | --- | --- | --- | --- |
| COc1ccc(COC[C@H](C)N2C[C@@H](C)[C@H](CN(C)S(=O)(=O)c3ccc(F)cc3)Oc3ccc(NC(=O)Nc4c(C)noc4C)cc3C2=O)cc1 |  | > 5000 |  |  |  |
| COc1ccc(COC[C@H](C)N2C[C@@H](C)[C@H](CN(C)S(=O)(=O)c3ccc(F)cc3)OCCCC[C@H](C)Oc3ccc(NC(=O)Nc4c(C)noc4C)cc3C2=O)cc1 |  | 0.88 |  | < 5 |  |
| C[C@@H]1CN([C@@H](C)CN(C)C)C(=O)c2cc(NC(=O)Nc3ccc(F)cc3)ccc2O[C@@H](C)CCCCO[C@H]1CN(C)S(=O)(=O)c1ccc(F)cc1 | 3.5 | 1.4 | < 5 | < 5 |  |
| C[C@@H]1CN([C@@H](C)CN(C)C)C(=O)c2cc(NC(=O)NC3COC3)ccc2O[C@@H](C)CCCCO[C@H]1CN(C)S(=O)(=O)c1ccc(F)cc1 | 1.1 | 32 | 8 | > 100 |  |
| Cc1noc(C)c1NC(=O)Nc1ccc2c(c1)C(=O)N([C@@H](C)CN(C)C)C[C@@H](C)[C@H](CN(C)S(=O)(=O)c1ccc(F)cc1)OCCCC[C@H](C)O2 | 2.9 | 4.2 | 8 | > 100 | concentration at 2 h [6]: 768 ng/mL; concentration at 0.5 h [7]: 300 ng/mL; inhibition at 1.25 h, 10 µM [1]: 13%; fold change (FC) [8]: 2 |
| CNC[C@H](C)N1C[C@@H](C)[C@H](CN(C)S(=O)(=O)c2ccc(F)cc2)OCCCC[C@H](C)Oc2ccc(NC(=O)Nc3c(C)noc3C)cc2C1=O | 1.7 | 320 | 51 | > 100 |  |
| CCN(CC)C[C@H](C)N1C[C@@H](C)[C@H](CN(C)S(=O)(=O)c2ccc(F)cc2)OCCCC[C@H](C)Oc2ccc(NC(=O)Nc3c(C)noc3C)cc2C1=O | 3.1 | 5 | 5 | 8 (≈ 6.07 µg/mL) |  |
| Cc1noc(C)c1NC(=O)Nc1ccc2c(c1)C(=O)N([C@@H](C)C[N+](C)(C)[O-])C[C@@H](C)[C@H](CN(C)S(=O)(=O)c1ccc(F)cc1)OCCCC[C@H](C)O2 | 1.5 | 160 | 35 | > 100 |  |
| Cc1noc(C)c1NC(=O)Nc1ccc2c(c1)C(=O)N([C@@H](C)CNCC(C)(C)C)C[C@@H](C)[C@H](CN(C)S(=O)(=O)c1ccc(F)cc1)OCCCC[C@H](C)O2 | 3.8 | 14 | 5 | 7 (≈ 5.41 µg/mL) |  |
| Cc1noc(C)c1NC(=O)Nc1ccc2c(c1)C(=O)N([C@@H](C)CNCC(F)(F)F)C[C@@H](C)[C@H](CN(C)S(=O)(=O)c1ccc(F)cc1)OCCCC[C@H](C)O2 | 3.9 | 9 | < 5 |  | inhibition at 1.25 h, 10 µM [1]: 15% |
| Cc1noc(C)c1NC(=O)Nc1ccc2c(c1)C(=O)N([C@@H](C)CN1CCOCC1)C[C@@H](C)[C@H](CN(C)S(=O)(=O)c1ccc(F)cc1)OCCCC[C@H](C)O2 | 3.5 | 105 | < 5 | 29 (≈ 22.4 µg/mL) | inhibition at 1.25 h, 10 µM [1]: 1% |
| COc1ccc(COC[C@H](C)N2C[C@@H](C)[C@H](CN(C)S(=O)(=O)c3ccc(F)cc3)OCCCC[C@H](C)OCCC2=O)cc1 |  | 3410 |  | < 5 |  |
| COc1ccc(COC[C@H](C)N2C[C@@H](C)[C@H](CN(C)S(=O)(=O)c3ccc(F)cc3)OCCCC[C@H](C)Oc3ccc(F)cc3C2=O)cc1 |  | 162 |  | < 5 |  |
| COc1ccc(COC[C@H](C)N2C[C@@H](C)[C@H](CN(C)S(=O)(=O)c3ccc(F)cc3)OCCCC[C@H](C)Oc3cc(F)ccc3C2=O)cc1 |  | 38 |  | < 5 |  |
| COc1ccc(COC[C@H](C)N2C[C@@H](C)[C@H](CN(C)S(=O)(=O)c3ccc(F)cc3)OCCCC[C@H](C)Oc3cc(C(F)(F)F)ccc3C2=O)cc1 |  | 48 |  | < 5 |  |
| COc1ccc(COC[C@H](C)N2C[C@@H](C)[C@H](CN(C)S(=O)(=O)c3ccc(F)cc3)OCCCC[C@H](C)Oc3cccnc3C2=O)cc1 |  | 403 |  | < 5 |  |
| COc1ccc(COC[C@H](C)N2C[C@@H](C)[C@H](CN(C)S(=O)(=O)c3ccc(F)cc3)OCCCC[C@H](C)Oc3ncccc3C2=O)cc1 |  | 59 |  | < 5 |  |
| COc1ccc(COC[C@H](C)N2C[C@@H](C)[C@H](CN(C)S(=O)(=O)c3ccc(F)cc3)OCCCC[C@H](C)Oc3nccnc3C2=O)cc1 |  | 214 |  | < 5 |  |
| C[C@H]1[C@H](OC(=O)CCC(=O)O)O[C@@H]2O[C@@]3(C)CC[C@H]4[C@H](C)CC[C@@H]1[C@@]24OO3 [ARTESUNATE] |  |  |  |  | inhibition (INH) [9]: 97% |
